Tests used:
IL-1 induction of PGE-2 = IL-1 induction of PGE-2 in human skin fibroblasts, ELISA of culture medium; type: cell-based
Protocol: For this experiment, human skin fibroblasts were seeded into 12 well culture dishes at a density of 80,000 cells/wells in tissue culture medium and left overnight to attach to the dish. The next day, medium was removed and replaced with fresh medium containing either 1% ethanol as a diluent control, IL-1 at a concentration of 500 picograms/ml, or IL-1 plus 4-EB at either 250 μM or 500 μM. Cells were incubated for an additional 24 hours and at this time, the medium was removed and assayed by ELISA for the presence of PGE-2 in the culture medium. […] The percent inhibitions are as follows: 4-EB, 100%, 6% and 10% at 50 μM, 10 μM and 1 μM.
Subsequent studies were carried out to determine the dose-response of human skin fibroblasts to 4-EB. […] The results of the study are provided graphically in FIG. 3A.
For this experiment, human skin fibroblasts were seeded into 12 well culture dishes at a density of 80,000 cells/wells in tissue culture medium and left overnight to attach to the dish. The next day, medium was removed and replaced with fresh medium containing either 1% ethanol as a diluent control, IL-1 at a concentration of 500 picograms/ml, or IL-1 plus one of the compounds under investigation at a concentration of 1, 10, 50 or 100 μM. Cells were incubated for an additional 24 hours and at this time, the medium was removed and assayed by ELISA for the presence of PGE-2 in the culture medium.

[1] = system: TPA-induced PGE2 expression in keratinocytes; experiment: TPA-induced PGE-2 in human skin keratinocytes, ELISA of culture medium; type: cell-based; set-up: percent inhibition of TPA-induced PGE-2: unit of the concentration uncertain; settings: TPA 32 nM
Protocol: Similar in vitro studies as those described in Example 1 were run using human skin keratinocytes. The experimental set up was the same as described for Example 2, but replacing IL-1 with tetradecanoyl phorbol acetate (TPA) at a concentration of 32 nM as the agonist.
Similar in vitro studies as those described in Example 4 were run using human skin keratinocytes. The experimental set up was the same as described for Example 5 but replacing IL-1 with tetradecanoyl phorbol acetate (TPA) at a concentration of 32 nM as the agonist. The compounds tested were 2-ethoxybenzaldehyde (2-EB), and 3-ethoxybenzaldehyde (3-EB) and 4-ethoxybenzaldehyde (4-EB) in concentrations of either 10, 50, or 100 μM.

[2] = Franz cell percutaneous absorption analysis; type: in vitro ADME, human; settings: from lotion formulation with 1.0% 4-ethoxybenzaldehyde; 24 hour period
Protocol: This lotion was then tested by Franz cell percutaneous absorption analysis to determine how much 4-EB could penetrate human skin over a 24 hour period. The lotion formulation above provided a flux rate of 4-EB through human skin of 30-50 micrograms/hour.

UV-induced erythema = experiment: UVB-induced erythema on inner forearm of a volunteer, topical lotion; type: in vivo, human; settings: next day, 14 hours post-irradiation
Protocol: This lotion was then tested to determine if it could prevent an inflammatory response when applied topically to human skin. For this study a lab volunteer was irradiated on a quarter sized spot on the inner forearm with 60-80 mJ of UVB light (a sunlamp). This dose was sufficient to cause a highly visible red erythema response. Immediately following irradiation on both arms, one arm was treated with the above 4-EB lotion while the other arm was treated with the same lotion formulation but with no 4-EB.

flux rate of 4-EB through human skin [2] | SMILES | percent inhibition of IL-1 induced PGE-2 (IL-1 induction of PGE-2; 50 μM, IL-1 500 picograms/ml, 24 hours) | block of the IL-1 induction of PGE-2 (in words) (IL-1 induction of PGE-2; 100 μM, dose-response study) | inhibition of the IL-1 induction of PGE-2 (IL-1 induction of PGE-2; 250 μM, IL-1 500 picograms/ml, 24 hours) | inhibition of the IL-1 induction of PGE-2 (IL-1 induction of PGE-2; 500 μM, IL-1 500 picograms/ml, 24 hours) | percent inhibition of TPA-induced PGE-2 ([1]; 50 μM) | percent inhibition of TPA-induced PGE-2 ([1]; 1001 (unit uncertain)) | inhibition at 50 µM ([1]; Homo sapiens, Keratinocyte, 50 μM, read-out: percent inhibition of TPA-induced PGE-2) | inhibition at 100 µM ([1]; Homo sapiens, Keratinocyte, 100 μM, read-out: percent inhibition of TPA-induced PGE-2) | redness of the treated spot (UV-induced erythema) | inhibition of the IL-1 induced production of PGE-2 (in words) (IL-1 induction of PGE-2; 50 μM)
30-50 micrograms/hour | CCOc1ccc(C=O)cc1 [4-EB, 4-ethoxybenzaldehyde] | 82% | completely blocked | complete inhibition | complete inhibition | 79.9% | 94.9% | 79.9% | 94.9% | no redness | –
– | COc1ccc(C=O)cc1 [4-MB, 4-methoxybenzaldehyde] | – | – | – | – | – | – | – | – | – | did not appear to inhibit
